From US20240226120A1 (priority 2020, published 2024)

How the values were obtained:
[1] = tested on: interferon and interferon-induced antiviral effector gene expression in cells expressing ORF8; experiment: qPCR of interferons and effector gene expression, ORF8; assay type: cell-based, human
[2] = tested on: interferon and interferon-induced antiviral effector gene expression in cells expressing ORF10; experiment: qPCR of interferons and effector gene expression, ORF10; assay type: cell-based, human

C=C(C)[C@@H]1CCC(C)=C[C@H]1c1c(O)cc(CCCCC)cc1O [Cannabidiol, 2-[(1R,6R)-3-Methyl-6-(1-methylethenyl)-2-cyclohexen-1-yl]-5-pentyl-1,3-benzenediol]
Interferon Lambda 1 mRNA expression ([1]; ORF8, 1 μM CBD vs vehicle alone, 24 hours (FIG. 9A)): significantly increased
extent of OAS1 augmentation compared with cells transfected with control vector ([1]; ORF8, 1 μM CBD, 24 hours): significantly higher
INF-gamma expression ([1]; ORF8, 1 μM CBD, 24 hours, compared with effect in control cells (FIG. 9B)): greater effect
OAS1 gene expression ([1]; ORF8, 1 μM CBD, 24 hours, relative to all other groups and treatments (FIG. 10)): highly significant increase
induction of OAS1 ([2]; ORF10, 1 μM CBD relative to vehicle alone, 24 hours (FIG. 14)): significantly increased
OAS1 induction compared with CBD plus control plasmid ([2]; ORF10, 1 μM CBD, 24 hours): lower
